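Interpolation was linear, between the two tested concentrations surrounding the appropriate level; five concentrations were tested over 48 hours in 96-well plates. TGI: concentration producing complete growth inhibition.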
Experiments:
Assay in all cases: NCI tumour cell line growth inhibition, 48 h
RXF-631 renal = system: RXF-631 renal
DLD-1 colon = system: DLD-1 colon
SNB-78 CNS = system: SNB-78 CNS
XF 498 CNS = system: XF 498 CNS
DMS 114 small cell lung = system: DMS 114 small cell lung
KM20L2 colon = system: KM20L2 colon
DMS 273 small cell lung = system: DMS 273 small cell lung
T-47D breast = system: T-47D breast
MDA-MB-435 = system: MDA-MB-435
DU-145 prostate = system: DU-145 prostate
HS 578T breast = system: HS 578T breast

Row | SMILES | TGI (RXF-631 renal) [µM] | TGI (DLD-1 colon) [µM] | TGI (SNB-78 CNS) [µM] | TGI (XF 498 CNS) [µM] | TGI (DMS 114 small cell lung) [µM] | TGI (KM20L2 colon) [µM] | TGI (DMS 273 small cell lung) [µM] | TGI (T-47D breast) [µM] | TGI (MDA-MB-435) [µM] | TGI (DU-145 prostate) [µM] | TGI (HS 578T breast) [µM]
1 | N/N=C(\Cc1ccccc1)NN=C(N)N | > 100 | > 100 | > 100 | > 100 | – | – | – | – | – | – | –
2 | O=C1CCC2(c3ccccc3)Nc3cc(Cl)ccc3N12 (stereo not drawn) | > 100 | > 100 | > 100 | 56.6 | 57.3 | > 100 | – | – | – | – | –
3 | Cc1cccc(C)c1NC(=O)CCCC(=O)C1CCC/C1=N\NC(=O)C(=O)NN (stereo not drawn) | > 100 | > 100 | > 100 | > 100 | > 100 | > 100 | > 100 | – | – | – | –
4 | CCC1CN2CCc3cc(OC)c(OC)cc3C2CC1CC1c2cc(OC)c(OC)cc2CCN1C(=O)CNC(=O)OC(C)(C)C (stereo not drawn) | > 100 | 36.9 | 51 | 28.9 | 20 | 90.6 | 37.8 | – | – | – | –
5 | Cc1c2ccncc2c(C)c2c1[nH]c1ccc(OC(C)(C)C)cc12 | 6.58 | 10.4 | 6.53 | 3.75 | 4.29 | 11.1 | 4.36 | – | – | – | –
6 | O=C1c2ccccc2C(=O)C1C(c1ccc([N+](=O)[O-])cc1)C1C(=O)c2ccccc2C1=O | 29.7 | > 100 | > 100 | > 100 | – | > 100 | > 100 | – | – | – | –
7 | CCOC(=O)N1C2C=C(C)C(C3C(C)C(=O)N31)N(C(=O)c1ccccc1)O2 (stereo not drawn) | > 100 | > 100 | > 100 | > 100 | > 100 | – | > 100 | – | – | – | –
8 | COc1ccc2c(C(=O)O)cc3cc(OC)c(OC)cc3c2c1 | > 100 | > 100 | > 100 | > 100 | – | > 100 | > 100 | – | – | – | –
9 | CN(C)C(=O)C1CCC(=C2C(=O)OC(C)(C)OC2=O)N1C (stereo not drawn) | – | > 100 | > 100 | > 100 | > 100 | > 100 | > 100 | – | – | – | –
10 | COC(=O)C(=O)C(C(=O)C=C(C)C)C(=O)C(=O)Nc1cccc(C(C)=O)c1 (stereo not drawn) | > 100 | > 100 | > 100 | > 100 | > 100 | > 100 | > 100 | – | – | – | –
11 | COc1cc(Oc2c(O)c(C)c(OC)c(C(C)=O)c2O)c(C(C)=O)c(O)c1C | > 100 | > 100 | > 100 | > 100 | > 100 | > 100 | > 100 | – | – | – | –
12 | CC(=O)Oc1ccccc1C(=O)C1c2cccc(O)c2C(=O)c2c(O)cccc21 | 11.1 | 12.2 | > 24.8 | 0.506 | 1.28 | 5.57 | 3.8 | – | – | – | –
13 | COc1ccc(COCC(Cn2ccnc2)OCc2ccc(C(=O)O)cc2)cc1 (stereo not drawn) | > 100 | > 100 | > 100 | > 100 | > 100 | > 100 | – | – | – | – | –
14 | O=c1[nH]cc(OCC(F)(F)F)c(=O)[nH]1 | > 100 | > 100 | > 100 | > 100 | > 100 | > 100 | > 100 | – | – | – | –
15 | CN(C)CCNC(=O)c1ccc(Cl)c2c(Nc3ccc(S(N)(=O)=O)cc3)c3ccccc3nc12 | 11.6 | 8.85 | – | 2.86 | 4.63 | 13.4 | 8.09 | – | – | – | –
16 | O=C1C(=O)N(C2C3CC4CC(C3)CC2C4)C(=O)C(=O)C1c1nc2ccccc2o1 (stereo not drawn) | > 100 | 92.9 | > 100 | > 100 | 44.7 | > 100 | > 100 | – | – | – | –
17 | CSc1nc(-c2ccccc2)c2c(n1)-c1ccccc1CC2 | > 100 | > 100 | – | > 100 | > 100 | > 100 | – | – | – | – | –
18 | O=C(O)c1c[nH]cc1C(=O)O | – | > 100 | > 100 | > 100 | > 100 | > 100 | > 100 | – | – | – | –
19 | Clc1ccc(CN2COc3c(cc(Cl)c4cccnc34)C2)cc1 | 23.1 | 13.6 | 17.9 | 7.24 | 3.73 | 27.5 | 3.53 | – | – | – | –
20 | CCSc1nc(COC(=O)NC)c(COC(=O)NC)n1C | > 100 | > 100 | > 85.9 | – | > 76.2 | > 100 | > 100 | > 100 | > 100 | > 23.2 | > 100
21 | CC(C)[C@@H](COC(C)(C)C)N=CN1CCc2c([nH]c3ccccc23)C1 | – | > 100 | > 100 | > 100 | > 100 | > 100 | > 100 | – | – | – | –
22 | CCO[C@@H]1C2C=CC(C2)[C@H]1[N+](=O)[O-] (stereo partly drawn) | – | > 100 | > 100 | > 100 | > 100 | > 100 | > 100 | – | – | – | –
23 | CCOC(=O)/C(C#N)=C1\N[C@H](C(=O)OCC)CO1 | > 100 | > 100 | > 100 | 78.1 | – | > 100 | – | – | – | – | –
24 | COC(=O)C(Cc1nc2ccc(Cl)cc2[nH]c1=O)C(=O)C(=O)Nc1ccccc1[N+](=O)[O-] (stereo not drawn) | > 100 | > 100 | > 100 | > 100 | > 100 | > 100 | > 100 | – | – | – | –
25 | COc1ccc2cc3n(c2c1)CCc1cc(OC)c(OC)cc1-3 | > 100 | > 100 | > 100 | > 100 | > 100 | > 100 | > 100 | – | – | – | –
26 | CC1CC2(CC[C@@H]1O)OCCO2 (stereo partly drawn) | > 100 | > 100 | > 100 | > 100 | – | – | > 100 | – | – | – | –
27 | O=C(O)CCC1CCc2cccc3occ1c23 (stereo not drawn) | > 100 | > 100 | > 100 | – | > 100 | > 100 | > 100 | – | – | – | –
28 | Cc1cccc(C(C)(C)C)c1NC(=O)C(=O)C(c1cnc2ccccc2n1)[N+](=O)[O-] (stereo not drawn) | – | > 100 | > 100 | > 100 | > 100 | > 100 | > 100 | – | – | – | –

— PubChem BioAssay (NCI)
